Results: US9206188B2, “Substituted pyrrolo[2,3-b]pyridines as ITK and JAK inhibitors” (Arrien Pharmaceuticals LLC, priority 2013, dated 2015)
Where two headings read alike, the source gives them in different places.

Tests used:
JAK3 = JAK3 (Homo sapiens (Human), UniProt P52333); test: JAK3 kinase assay (radiometric filter binding, 10 μM ATP); type: biochemical
Description: (§1) All additions were done on ice, followed by the addition of ATP mix. Wells were uniformly mixed using an Eppendorff plate shaker and incubated at 30° C. for 20 min, and stopped by the addition of 5 μL of 3% phosphoric acid. Volume was increased to 100 μL by adding 0.8% phosphoric acid which was then transferred to PC filter mats (Millipore), pre-equilibrated with 70% ethanol and water. Plates were washed thrice with 100 μL 0.8% phosphoric acid and dried for an hour at 60° C. 100 μL scintillation fluid was added into each well and reading taken in Perkin Elmer TOPCOUNT beta counter.
(§2) The reactions were carried out at 10 μM ATP for ITK, JAK3 and other TEC and Janus family of kinase.

ITK = ITK (Homo sapiens (Human), UniProt Q08881); test: ITK kinase assay (radiometric filter binding, 10 μM ATP); type: biochemical
Description: as §1, §2

[1] = 10-dose IC50 mode, 10 μM ATP, read-out: JAK3 kinase inhibition
[2] = 10-dose IC50 mode, 10 μM ATP, read-out: ITK kinase inhibition
[3] = read-out: biochemical IC50 against JAK3
[4] = read-out: biochemical IC50 against ITK

Sequence of JAK3 (P52333 whole entry): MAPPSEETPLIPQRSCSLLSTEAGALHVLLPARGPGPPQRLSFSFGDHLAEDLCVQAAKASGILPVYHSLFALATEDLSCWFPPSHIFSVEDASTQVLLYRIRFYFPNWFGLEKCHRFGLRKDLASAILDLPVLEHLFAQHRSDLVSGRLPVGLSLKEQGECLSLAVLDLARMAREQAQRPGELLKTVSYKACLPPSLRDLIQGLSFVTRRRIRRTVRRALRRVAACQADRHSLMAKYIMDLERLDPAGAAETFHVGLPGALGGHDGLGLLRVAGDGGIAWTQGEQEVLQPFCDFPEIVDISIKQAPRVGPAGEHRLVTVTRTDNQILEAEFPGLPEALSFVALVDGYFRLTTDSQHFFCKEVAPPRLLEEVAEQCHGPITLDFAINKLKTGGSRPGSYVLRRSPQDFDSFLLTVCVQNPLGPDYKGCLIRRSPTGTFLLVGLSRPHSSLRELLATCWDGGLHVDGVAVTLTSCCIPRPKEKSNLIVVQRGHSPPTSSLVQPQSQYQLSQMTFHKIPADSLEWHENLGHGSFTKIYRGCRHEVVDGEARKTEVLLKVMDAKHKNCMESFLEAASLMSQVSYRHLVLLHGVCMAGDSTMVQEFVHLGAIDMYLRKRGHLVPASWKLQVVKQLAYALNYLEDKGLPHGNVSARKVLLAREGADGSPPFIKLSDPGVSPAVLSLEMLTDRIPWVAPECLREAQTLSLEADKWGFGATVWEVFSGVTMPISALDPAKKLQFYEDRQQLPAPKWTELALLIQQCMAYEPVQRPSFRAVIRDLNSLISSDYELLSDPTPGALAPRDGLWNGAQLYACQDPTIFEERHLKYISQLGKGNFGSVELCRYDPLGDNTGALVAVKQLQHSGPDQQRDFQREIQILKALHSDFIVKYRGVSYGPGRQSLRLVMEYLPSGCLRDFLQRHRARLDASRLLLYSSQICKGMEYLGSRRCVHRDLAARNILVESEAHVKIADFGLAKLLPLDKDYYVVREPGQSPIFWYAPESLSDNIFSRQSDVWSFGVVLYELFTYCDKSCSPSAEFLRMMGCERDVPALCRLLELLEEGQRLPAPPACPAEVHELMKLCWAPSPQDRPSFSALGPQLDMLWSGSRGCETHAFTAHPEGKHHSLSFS
Sequence of ITK (Q08881 whole entry): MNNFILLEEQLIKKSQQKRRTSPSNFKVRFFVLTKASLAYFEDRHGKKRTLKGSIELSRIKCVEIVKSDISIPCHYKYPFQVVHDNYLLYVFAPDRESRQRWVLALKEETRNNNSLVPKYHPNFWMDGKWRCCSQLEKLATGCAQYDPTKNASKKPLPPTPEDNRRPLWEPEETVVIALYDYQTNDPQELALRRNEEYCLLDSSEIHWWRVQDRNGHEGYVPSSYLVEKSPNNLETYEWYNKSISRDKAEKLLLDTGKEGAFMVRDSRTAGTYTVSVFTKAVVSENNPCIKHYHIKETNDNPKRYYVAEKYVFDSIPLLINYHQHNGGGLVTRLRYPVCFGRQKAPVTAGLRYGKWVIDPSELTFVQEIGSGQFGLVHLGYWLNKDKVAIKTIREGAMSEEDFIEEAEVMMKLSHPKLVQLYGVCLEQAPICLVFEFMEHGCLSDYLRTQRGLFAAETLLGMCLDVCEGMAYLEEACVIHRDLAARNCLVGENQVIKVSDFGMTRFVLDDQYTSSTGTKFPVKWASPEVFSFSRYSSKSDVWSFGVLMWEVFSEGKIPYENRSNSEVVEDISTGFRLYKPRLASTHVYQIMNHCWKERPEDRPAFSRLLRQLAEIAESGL

C=CC(=O)Nc1cccc(-c2cnc3[nH]nc(C)c3c2)c1 [Example 1, N-(3-(3-methyl-1H-pyrazolo[3,4-b]pyridin-5-yl)phenyl)acrylamide]
IC50 (JAK3; [1]): > 1000 nM | IC50 (ITK; [2]): > 1000 nM

C=CC(=O)Nc1cccc(-c2cnc3[nH]cc(-c4cc5ccc(C)cc5[nH]4)c3n2)c1 [Example 2, N-(3-(7-(6-methyl-1H-indol-2-yl)-5H-pyrrolo[2,3-b]pyrazin-2-yl)phenyl)acrylamide]
IC50 (JAK3; [1]): > 100 nM | IC50 (ITK; [2]): > 100 nM

C=CC(=O)Nc1cccc(-c2cnc3[nH]cc(-c4cc5ccccc5[nH]4)c3n2)c1 [Example 5, N-(3-(7-(1H-indol-2-yl)-5H-pyrrolo[2,3-b]pyrazin-2-yl)phenyl)acrylamide]
IC50 (JAK3; [3]): 100 to 1000 nM | IC50 (ITK; [4]): 100 to 1000 nM

C=CC(=O)Nc1cccc(-c2cnc3[nH]cc(C)c3c2)c1 [Example 8, N-(3-(3-methyl-1H-pyrrolo[2,3-b]pyridin-5-yl)phenyl)acrylamide]
IC50 (JAK3; [3]): 100 to 1000 nM | IC50 (ITK; [4]): 100 to 1000 nM

C=CC(=O)Nc1cc(-c2cnc3[nH]cc(C)c3c2)ccc1Cl [Example 15, N-(2-chloro-5-(3-methyl-1H-pyrrolo[2,3-b]pyridin-5-yl)phenyl)acrylamide]
IC50 (JAK3; [1]): > 100 nM | IC50 (ITK; [2]): > 100 nM

C#CC1(C(=O)Nc2cccc(-c3cnc4[nH]cc(Cl)c4c3)c2)CC1 [Example 16, N-(3-(3-chloro-1H-pyrrolo[2,3-b]pyridin-5-yl)phenyl)-1-ethynylcyclopropanecarboxamide]
IC50 (JAK3; [1]): < 100 nM | IC50 (JAK3; [3]): 100 to 1000 nM | IC50 (ITK; [2]): > 1000 nM | IC50 (ITK; [4]): 100 to 1000 nM

C=CC(=O)Nc1ccccc1-c1cnc2[nH]cc(C)c2c1 [Example 17, N-(2-(3-methyl-1H-pyrrolo[2,3-b]pyridin-5-yl)phenyl)acrylamide]
IC50 (JAK3; [1]): > 1000 nM | IC50 (ITK; [2]): > 1000 nM

C=CC(=O)Nc1ccccc1-c1cnc2[nH]cc(Cl)c2c1 [Example 18, N-(2-(3-chloro-1H-pyrrolo[2,3-b]pyridin-5-yl)phenyl)acrylamide]
IC50 (JAK3; [1]): > 1000 nM | IC50 (ITK; [2]): > 1000 nM

CC#CC(=O)Nc1cccc(-c2cnc3[nH]cc(Cl)c3c2)c1 [Example 19, N-(3-(3-chloro-1H-pyrrolo[2,3-b]pyridin-5-yl)phenyl)but-2-ynamide]
IC50 (JAK3; [1]): < 100 nM | IC50 (ITK; [2]): < 100 nM

C#CC(=O)Nc1cccc(-c2cnc3[nH]cc(Cl)c3c2)c1 [Example 20, N-(3-(3-chloro-1H-pyrrolo[2,3-b]pyridin-5-yl)phenyl)propiolamide]
IC50 (JAK3; [1]): < 100 nM | IC50 (ITK; [2]): < 100 nM

CCC#CC(=O)Nc1cccc(-c2cnc3[nH]cc(Cl)c3c2)c1 [Example 21, N-(3-(3-chloro-1H-pyrrolo[2,3-b]pyridin-5-yl)phenyl)pent-2-ynamide]
IC50 (JAK3; [1]): < 100 nM | IC50 (ITK; [2]): < 100 nM

O=C(CF)Nc1cccc(-c2cnc3[nH]cc(Cl)c3c2)c1 [Example 22, N-(3-(3-chloro-1H-pyrrolo[2,3-b]pyridin-5-yl)phenyl)-2-fluoroacetamide]
IC50 (JAK3; [1]): < 100 nM | IC50 (ITK; [2]): > 1000 nM

CC#CC(=O)Nc1cccc(-c2cnc3[nH]cc(C)c3c2)c1 [Example 23, N-(3-(3-methyl-1H-pyrrolo[2,3-b]pyridin-5-yl)phenyl)but-2-ynamide]
IC50 (JAK3; [1]): < 100 nM | IC50 (ITK; [2]): < 100 nM

CCC#CC(=O)Nc1cccc(-c2cnc3[nH]cc(C)c3c2)c1 [Example 24, N-(3-(3-methyl-1H-pyrrolo[2,3-b]pyridin-5-yl)phenyl)pent-2-ynamide]
IC50 (JAK3; [1]): < 100 nM | IC50 (ITK; [2]): > 100 nM

Cc1c[nH]c2ncc(-c3cccc(NC(=O)CF)c3)cc12 [Example 25, 2-fluoro-N-(3-(3-methyl-1H-pyrrolo[2,3-b]pyridin-5-yl)phenyl)acetamide]
IC50 (JAK3; [1]): < 100 nM | IC50 (ITK; [2]): > 1000 nM

C=CC(=O)Nc1cccc(-c2cnc3[nH]cc(-c4cccc(F)c4OC)c3c2)c1 [Example 26, N-(3-(3-(3-fluoro-2-methoxyphenyl)-1H-pyrrolo[2,3-b]pyridin-5-yl)phenyl)acrylamide]
IC50 (JAK3; [1]): < 100 nM | IC50 (ITK; [2]): < 100 nM

C=CC(=O)Nc1cccc(-c2cnc3[nH]cc(-c4cccc(S(=O)(=O)N(C)C(C)(C)C)c4)c3c2)c1 [Example 27, N-(3-(3-(3-(N-(tert-butyl)-N-methylsulfamoyl)phenyl)-1H-pyrrolo[2,3-b]pyridin-5-yl)phenyl)acrylamide]
IC50 (JAK3; [1]): < 100 nM | IC50 (ITK; [2]): < 100 nM

C=CC(=O)Nc1cccc(-c2cnc3[nH]cc(-c4cccc(C(=O)OCC)c4)c3c2)c1 [Example 29, ethyl 3-(5-(3-acrylamidophenyl)-1H-pyrrolo[2,3-b]pyridin-3-yl)benzoate]
IC50 (JAK3; [1]): < 100 nM | IC50 (ITK; [2]): < 100 nM

C=CC(=O)Nc1cccc(-c2cnc3[nH]cc(-c4cc(F)cc(F)c4OC)c3c2)c1 [Example 30, N-(3-(3-(3,5-difluoro-2-methoxyphenyl)-1H-pyrrolo[2,3-b]pyridin-5-yl)phenyl)acrylamide]
IC50 (JAK3; [1]): < 100 nM | IC50 (ITK; [2]): < 100 nM

CCC#CC(=O)Nc1cccc(-c2cnc3[nH]cc(-c4cccc(S(=O)(=O)N(C)C(C)(C)C)c4)c3c2)c1 [Example 32, N-(3-(3-(3-(N-(tert-butyl)-N-methylsulfamoyl)phenyl)-1H-pyrrolo[2,3-b]pyridin-5-yl)phenyl)pent-2-ynamide]
IC50 (JAK3; [1]): < 100 nM | IC50 (ITK; [2]): > 100 nM

C=CC(=O)Nc1cccc(-c2cnc3[nH]cc(-c4cccc(S(=O)(=O)N(C)C(C)(C)C)c4)c3n2)c1 [Example 33, N-(3-(7-(3-(N-(tert-butyl)-N-methylsulfamoyl)phenyl)-5H-pyrrolo[2,3-b]pyrazin-2-yl)phenyl)acrylamide]
IC50 (JAK3; [1]): < 100 nM | IC50 (ITK; [2]): < 100 nM

C=CC(=O)Nc1cccc(-c2cnc3[nH]cc(-c4cccc(S(=O)(=O)N(C)C)c4)c3c2)c1 [Example 34, N-(3-(3-(3-(N,N-dimethylsulfamoyl)phenyl)-1H-pyrrolo[2,3-b]pyridin-5-yl)phenyl)acrylamide]
IC50 (JAK3; [1]): > 100 nM | IC50 (ITK; [2]): > 100 nM

C=CC(=O)Nc1cccc(-c2cnc3[nH]cc(-c4cccc(S(C)(=O)=O)c4)c3c2)c1 [Example 35, N-(3-(3-(3-(methylsulfonyl)phenyl)-1H-pyrrolo[2,3-b]pyridin-5-yl)phenyl)acrylamide]
IC50 (JAK3; [1]): > 100 nM | IC50 (ITK; [2]): > 100 nM

C=CC(=O)Nc1cccc(-c2cnc3[nH]cc(-c4cccc(S(=O)(=O)CC)c4)c3c2)c1 [Example 36, N-(3-(3-(3-(ethylsulfonyl)phenyl)-1H-pyrrolo[2,3-b]pyridin-5-yl)phenyl)acrylamide]
IC50 (JAK3; [1]): > 100 nM | IC50 (ITK; [2]): > 100 nM

CCC#CC(=O)Nc1cccc(-c2cnc3[nH]cc(-c4cc(F)cc(F)c4OC)c3c2)c1 [Example 37, N-(3-(3-(3,5-difluoro-2-methoxyphenyl)-1H-pyrrolo[2,3-b]pyridin-5-yl)phenyl)pent-2-ynamide]
IC50 (JAK3; [1]): > 100 nM | IC50 (ITK; [2]): > 100 nM

C=CC(=O)Nc1cc(-c2cnc3[nH]cc(-c4cc(F)cc(F)c4OC)c3c2)ccc1F [Example 38, N-(5-(3-(3,5-difluoro-2-methoxyphenyl)-1H-pyrrolo[2,3-b]pyridin-5-yl)-2-fluorophenyl)acrylamide]
IC50 (JAK3; [1]): > 100 nM | IC50 (ITK; [2]): > 100 nM

C=CC(=O)Nc1cc(-c2cnc3[nH]cc(-c4cc(F)cc(F)c4OC)c3c2)c(F)cc1F [Example 39, N-(5-(3-(3,5-difluoro-2-methoxyphenyl)-1H-pyrrolo[2,3-b]pyridin-5-yl)-2,4-difluorophenyl)acrylamide]
IC50 (JAK3; [1]): > 100 nM | IC50 (ITK; [2]): > 100 nM

C=CC(=O)Nc1ccc(F)c(-c2cnc3[nH]cc(-c4cc(F)cc(F)c4OC)c3c2)c1 [Example 40, N-(3-(3-(3,5-difluoro-2-methoxyphenyl)-1H-pyrrolo[2,3-b]pyridin-5-yl)-4-fluorophenyl)acrylamide]
IC50 (JAK3; [1]): > 100 nM | IC50 (ITK; [2]): > 100 nM

C=CC(=O)Nc1cc(-c2cnc3[nH]cc(-c4cc(F)cc(F)c4OC)c3c2)ccc1Cl [Example 41, N-(2-chloro-5-(3-(3,5-difluoro-2-methoxyphenyl)-1H-pyrrolo[2,3-b]pyridin-5-yl)phenyl)acrylamide]
IC50 (JAK3; [1]): > 100 nM | IC50 (ITK; [2]): > 100 nM

C=CC(=O)Nc1cccc(-c2cnc3[nH]cc(-c4cc(F)cc(F)c4OC)c3c2)n1 [Example 42, N-(6-(3-(3,5-difluoro-2-methoxyphenyl)-1H-pyrrolo[2,3-b]pyridin-5-yl)pyridin-2-yl)acrylamide]
IC50 (JAK3; [1]): > 100 nM | IC50 (ITK; [2]): > 100 nM

CN(C)/C=C/C(=O)Nc1cccc(-c2cnc3[nH]cc(Cl)c3c2)c1 [Example 44, (E)-N-(3-(3-chloro-1H-pyrrolo[2,3-b]pyridin-5-yl)phenyl)-3-(dimethylamino)acrylamide]
IC50 (ITK; [2]): > 1000 nM

C=CC(=O)Nc1cc(-c2cnc3[nH]cc(Cl)c3c2)ccc1Cl [Example 46, N-(2-chloro-5-(3-chloro-1H-pyrrolo[2,3-b]pyridin-5-yl)phenyl)acrylamide]
IC50 (JAK3; [1]): > 1000 nM | IC50 (ITK; [2]): > 1000 nM

CC/C=C/C(=O)Nc1cc(-c2cnc3[nH]cc(Cl)c3c2)ccc1Cl [Example 47, (E)-N-(2-chloro-5-(3-chloro-1H-pyrrolo[2,3-b]pyridin-5-yl)phenyl)pent-2-enamide]
IC50 (JAK3; [1]): > 1000 nM | IC50 (ITK; [2]): > 1000 nM

C=CC(=O)Nc1cc(-c2cnc3[nH]cc(Cl)c3c2)cc(F)c1F [Example 64, N-(5-(3-chloro-1H-pyrrolo[2,3-b]pyridin-5-yl)-2,3-difluorophenyl)acrylamide]
IC50 (JAK3; [1]): > 100 nM

CC#CC(=O)Nc1cc(-c2cnc3[nH]cc(Cl)c3c2)ccc1F [Example 88, N-(5-(3-chloro-1H-pyrrolo[2,3-b]pyridin-5-yl)-2-fluorophenyl)but-2-ynamide]
IC50 (JAK3; [1]): < 100 nM

(E)-N-(2-chloro-5-(3-methyl-1H- pyrrolo[2,3-b]pyridin-5- yl)phenyl)pent-1-enamide [Example 14]
IC50 (JAK3; [1]): > 100 nM
